# In patent publication US20160106711A1, “3-3-Di-Substituted-Oxindoles as Inhibitors of Translation Initiation” (President and Fellows of Harvard College, priority 2012, published 2016):
# What was measured:
# [1] = tested on: eIF2•GTP•Met-tRNAi ternary complex; test: Ternary complex assay (ATF-4 assay), dual luciferase firefly/renilla ratio; assay type: cell-based, mouse; details: Mus musculus; for maximal fold induction at 40 µM: read-out: ATF-4 Xmax @ 40 μM
# Description: For assay development, a bi-directional plasmid was designed in which a common promoter/enhancer complex drives the transcription of firefly luciferase (F-luc) ORF fused to the 5′ untranslated region (UTR) of ATF-4, and of the renilla luciferase (R-luc) ORF fused to a 90-nucleotide 5′ UTR derived from the plasmid (FIG. 6A). Because the tetracycline-regulated transactivator ((tTA), required for driving transcription from this vector) is not normally expressed in the mammalian cells, stable KLN cancer cells were constructed that expressed tTA (KLN-tTA).
# The KLN-tTA colonies that drove expression of reporter genes from pBISA-DL plasmid were selected by transient transfection and dual luciferase assay. One of these KLN-tTA cell lines was transfected with the pBISA-DL^(ATF-4) expression vector, stable colonies were selected by dual luciferase assay and expanded.
# Plasmids and Ternary Complex Assay
# (ATF-4 Assay). Briefly, bi-directional mammalian expression vector pBI (Clontech, CA) was modified to expand the multiple cloning sites (MCSs) and designated thereafter as pBISA. This vector contains seven copies of the tetracycline-regulated transactivator response element (TRE), which together act as core promoter/enhancer. The TRE is flanked on both sides by minimal human cytomegalovirus (CMV) minimal promoters allowing bi-directional transcription and two MCSs. Firefly and renilla luciferases were subcloned into MCS-I and MCS-II, respectively. This plasmid, designated pBISA-DL, transcribes two mRNAs that contain the 90 nucleotide plasmid derived 5′UTR (same sequence in both mRNAs), and the ORF encoding either firefly or renilla luciferase followed by a polyadenylation sequence as described in Ziegeler, G.; Ming, J.; Koseki, J. C.; Sevinc, S.; Chen, T.; Ergun, S.; Qin, X.; Aktas, B. H. J. Biol. Chem. 2010, 285, 15408 hereby incorporated by reference. This plasmid was further modified by inserting the 5′UTR of ATF-4 into MCS-I in front of the firefly luciferase mRNA. Transcription from this direction generates an mRNA that contains the firefly luciferase ORF preceded by a 5′UTR composed of 90 nucleotides derived from the plasmid and 267 nucleotides derived from the 5′UTR of ATF-4 mRNA. Transcription from the other direction generates an mRNA that contains the renilla luciferase ORF proceeded only by the 90-nucleotide plasmid-derived sequence in the 5′UTR. This expression plasmid is called pBISA-DL(ATF-4). In the dual luciferase assay, cells expressing firefly and renilla luciferases were lysed and the extracts assayed with a Dual-Glo Luciferase assay kit, per manufacturer's instruction (Promega Inc., Madison, Wis.). The data calculations were carried out as the ratio of firefly to renilla luciferase signal as described in Chen, T.; Ozel, D.; Qiao, Y.; Harbinski, F.; Chen, L.; Denoyelle, S.; He, X.; Zvereva, N.; Supko, J. G.; Chorev, M.; Halperin, J. A.; Aktas, B. H. Nat. Chem. Biol. 2011, 7, 610 hereby incorporated by reference.
# [2] = tested on: KLN; test: Cell growth assay (sulforhodamine B), KLN cells; assay type: cell-based, mouse; details: Mus musculus, 120 h, 5 days, SRB
# Protocol: […] Plates were then incubated with 0.4% SRB in 1% acetic acid for 1 h, washed with 1% acetic acid to remove the unbound dye, and air-dried. The bound dye was solubilized by addition of 10 mM Tris (pH 10), and the absorbance was determined in a Titertek Multiscan plate reader at 490 nm. The data calculations were carried out as described (the values for mean±SD of data from replicate wells are calculated): data are expressed in terms of % T/C [(OD of treated cells/OD of control cells)×100], as a measure of cell viability and survival in the presence of test materials. Calculations are also made for the concentration of test agents giving a T/C value of 50%, or 50% growth inhibition (IC50). With the SRB assay, a measure is made of the cell population density at time 0 (the time at which drugs are added) from two extra reference plates of inoculated cells fixed with TCA just prior to drug addition to the test plates. Thus, we have three measurements: control optical density (C), test optical density (T), and optical density at time zero (T0). The calculation is 100×[(T−T0)/(C−T0)]. If T is less than T0, cell killing has occurred and can be calculated from 100×[(T−T0)/T0]. Thus, for each drug-cell line combination, a dose-response curve is generated and three levels of effect are calculated.
# [3] = tested on: CRL-2351; test: Cell growth assay (sulforhodamine B), CRL-2351 cells; assay type: cell-based, human; details: Homo sapiens, 120 h, 5 days, SRB
# Protocol: (§1) Adherent mouse (KLN) and human solid tumor cells (CRL-2351, and CRL-2813) were plated in 96-well plates and maintained for 5 days in the presence of 0.54 to 6 μM of individual compound, and cell proliferation was measured by the sulforhodamine B (SRB) assay as described in ref. 11: briefly, cells were fixed in 10% cold trichloroacetic acid at 4° C. for 1 h, extensively washed with double-distilled H2O and air-dried. Plates were then incubated with 0.4% SRB in 1% acetic acid for 1 h, washed with 1% acetic acid to remove the unbound dye, and air-dried. The bound dye was solubilized by addition of 10 mM Tris (pH 10), and the absorbance was determined in a Titertek Multiscan plate reader at 490 nm. The data calculations were carried out as described (the values for mean±SD of data from replicate wells are calculated): data are expressed in terms of % T/C [(OD of treated cells/OD of control cells)×100], as a measure of cell viability and survival in the presence of test materials. Calculations are also made for the concentration of test agents giving a T/C value of 50%, or 50% growth inhibition (IC50). With the SRB assay, a measure is made of the cell population density at time 0 (the time at which drugs are added) from two extra reference plates of inoculated cells fixed with TCA just prior to drug addition to the test plates. Thus, we have three measurements: control optical density (C), test optical density (T), and optical density at time zero (T0). The calculation is 100×[(T−T0)/(C−T0)]. If T is less than T0, cell killing has occurred and can be calculated from 100×[(T−T0)/T0]. Thus, for each drug-cell line combination, a dose-response curve is generated and three levels of effect are calculated.
# [4] = tested on: CRL-2813; test: Cell growth assay (sulforhodamine B), CRL-2813 cells; assay type: cell-based, human; details: Homo sapiens, CRL2813, 120 h, 5 days, SRB
# Protocol: as §1
SMILES,maximal fold induction at 80 µM ([1]; read-out: ATF-4 Xmax),IC50 [2],IC50 [3],IC50 [4],maximal fold induction at 20 µM ([1]; read-out: ATF-4 Xmax),maximal fold induction at 10 µM ([1]; read-out: ATF-4 Xmax),maximal fold induction at 40 µM [1],maximal fold induction at 2.5 µM ([1]; read-out: ATF-4 Xmax),"maximal fold induction at 5 µM ([1]; cell prints 5 (uM), read-out: ATF-4 Xmax)"
CC(C)(C)c1ccc(O)c(C2(c3ccccc3)C(=O)Nc3ccc(-c4ccc(N5CCOCC5)nc4)cc32)c1 (centres unmarked) [Sd231],15.6 ± 0.4,13.3 ± 2.4 µM,1.8 ± 0.4 µM,2.5 ± 1.5 µM,–,–,–,–,–
CCN(C)CCOc1ccc(C(C)(C)C)cc1C1(c2cc(C(C)(C)C)ccc2O)C(=O)Nc2ccccc21 (centres unmarked) [HY301],–,4.6 ± 1.2 µM,0.9 ± 0.2 µM,1.5 ± 0.7 µM,15.1 ± 1.04,–,–,–,–
CC(C)(C)c1ccc(O)c(C2(c3cc(C(C)(C)C)ccc3OCCN3CCCC3)C(=O)Nc3ccccc32)c1 (centres unmarked) [HY091],–,1.4 ± 0.4 µM,1 µM,10.7 ± 0.8 µM,5.3 ± 0.7,2.73 ± 0.65,–,–,–
CC(C)(C)c1ccc(O)c(C2(c3ccccc3)C(=O)Nc3ccc4ncsc4c32)c1 (centres unmarked) [Sd233],–,8 µM,2.2 ± 1 µM,0.95 ± 0.1 µM,–,–,1.2 ± 0.05,–,–
"CCCCc1ccc(O)c(C2(c3cc(CCCC)ccc3O)C(=O)Nc3ccccc32)c1 [HY048, 3,3-Bis(5-Butyl-2-Hydroxyphenyl)Indolin-2-One]",–,14.3 ± 1.6 µM,1.9 ± 0.5 µM,3 µM,5 ± 1.5,–,–,–,–
CC(=O)OCCOc1ccc(C(C)(C)C)cc1C1(c2cc(C(C)(C)C)ccc2OCCOC(C)=O)C(=O)Nc2ccccc21 [HY184],2.07 ± 1.6,> 20 µM,2 µM,2 µM,–,–,–,–,–
CN(C)CCOc1ccc(C(C)(C)C)cc1C1(c2cc(C(C)(C)C)ccc2O)C(=O)N(CCN(C)C)c2ccccc21 (centres unmarked) [HY277],–,0.3 ± 0.1 µM,0.3 ± 0.11 µM,0.9 ± 0.1 µM,–,14.3 ± 1.86,–,–,–
"COc1ccc(C2(c3cc(OC(C)C)ccc3OCCN3CCOCC3)C(=O)Nc3ccccc32)cc1 (centres unmarked) [Sd179, 3-(4-Methoxyphenyl)-3-{2-[2-(morpholin-4-yl)ethoxy]-5-(propan-2-yloxy)phenyl}-indol-2-one]",2.6 ± 0.14,11.8 ± 1 µM,8.6 ± 1 µM,13.4 ± 0.7 µM,–,–,–,–,–
"COc1ccc(C2(c3cc(C(C)(C)C)ccc3OCCN3CCOCC3)C(=O)Nc3ccccc32)cc1OC (centres unmarked) [Sd152, 3-{5-tert-butyl-2-[2-(morpholin-4-yl)ethoxy]phenyl}-3-(3,4-dimethoxyphenyl)-indol-2-one]",2.8,> 20 µM,> 20 µM,> 20 µM,–,–,–,–,–
CN(C)CCOc1ccc(C(C)(C)C)cc1C1(c2cc(C(C)(C)C)ccc2OCCN(C)C)C(=O)N(CCN(C)C)c2ccccc21 [HY092],–,0.2 ± 0.03 µM,0.34 ± 0.18 µM,0.9 ± 0.01 µM,–,–,–,16.8 ± 2.18,–
COc1ccc(C2(c3cc(C(C)(C)C)ccc3O)C(=O)Nc3ccc(OC)cc32)cc1 (centres unmarked) [Sd184],–,14.3 ± 3 µM,2.9 ± 0.3 µM,11.1 ± 1.1 µM,–,–,4 ± 0.36,–,–
CCN(CC)CCOc1ccc(C(C)(C)C)cc1C1(c2cc(C(C)(C)C)ccc2OCCN(CC)CC)C(=O)N(CCN(CC)CC)c2ccccc21 [HY296],–,1.6 ± 0.5 µM,0.59 ± 0.26 µM,0.72 ± 0.23 µM,–,–,–,14.3 ± 0.78,–
COc1ccc(C2(c3cc(C(C)(C)C)ccc3OCCN3CCOCC3)C(=O)Nc3ccc(OC(F)(F)F)cc32)cc1 (centres unmarked) [Sd225],–,9.3 ± 2.7 µM,2.9 ± 0.27 µM,1.9 ± 0.7 µM,–,–,5.11 ± 0.48,–,–
CC(C)(C)c1ccc(O)c(C2(c3ccccc3)C(=O)Nc3ccc(OC(F)(F)F)cc32)c1 (centres unmarked) [Sd224],–,8 µM,2.5 ± 0.9 µM,1 µM,–,–,2.56 ± 0.3,–,–
CC(C)(C)c1ccc(O)c(C2(c3cc(C(C)(C)C)ccc3OCCBr)C(=O)Nc3ccccc32)c1 (centres unmarked) [HY083],–,11.4 ± 2.2 µM,2.4 ± 1.6 µM,1 ± 0.9 µM,–,–,12.9 ± 2.11,–,–
"COC(=O)c1cccc2c1NC(=O)C2(c1ccc(OC)cc1)c1cc(C(C)(C)C)ccc1OCCN1CCOCC1 (centres unmarked) [Sd203, Methyl 3-{5-tert-butyl-2-[2-(morpholin-4-yl)ethoxy]phenyl}-3-(4-methoxyphenyl)-2-oxoindole-7-carboxylate]",–,17 ± 3.5 µM,16.3 ± 1.6 µM,14.6 ± 2.8 µM,–,–,–,–,1.51 ± 0.3
"COc1ccc(C2(c3cc(C(C)(C)C)ccc3OCCN3CCOCC3)C(=O)Nc3ccc(OC)cc32)cc1 (centres unmarked) [Sd185, 3-{5-tert-butyl-2-[2-(morpholin-4-yl)ethoxy]phenyl}-5-methoxy-3-(4-methoxyphenyl)-indol-2-one]",–,2.75 ± 0.3 µM,4.5 ± 0.7 µM,2.9 ± 0.3 µM,–,–,3.92 ± 0.16,–,–
COc1ccc(C(C)C)cc1C1(c2cc(C(C)C)ccc2O)C(=O)Nc2ccccc21 (centres unmarked) [HY161],–,> 20 µM,7.2 ± 3 µM,1.4 ± 0.09 µM,–,–,3.91 ± 0.65,–,–
CC(=O)OCCOc1ccc(C(C)(C)C)cc1C1(c2cc(C(C)(C)C)ccc2O)C(=O)Nc2ccccc21 (centres unmarked) [HY084],11.4 ± 0.4,11.4 ± 0.2 µM,2.7 ± 0.2 µM,1.6 ± 0.4 µM,–,–,8.59 ± 1.67,–,–
O=C1Nc2c(ccc(F)c2F)C1(c1ccc(O)cc1)c1ccc(O)cc1 [SD132],8.8 ± 1.97,> 20 µM,> 20 µM,3.74 ± 0.28 µM,–,–,–,–,–
CN(C)CCN1C(=O)C(c2cc(C(C)(C)C)ccc2O)(c2cc(C(C)(C)C)ccc2O)c2ccccc21 [HY087],–,> 20 µM,2.7 ± 0.2 µM,> 20 µM,7.12 ± 1.3,–,–,–,–
CC(C)(C)c1ccc(O)c(C2(c3cc(C(C)(C)C)ccc3OCCN3CCCC3)C(=O)N(CCN3CCCC3)c3ccccc32)c1 (centres unmarked) [HY093],–,4.1 ± 0.8 µM,3.6 ± 0.7 µM,7.25 ± 1.6 µM,2.21 ± 0.75,–,9 ± 1.7,–,–
CN(C)c1ccc(C2(c3cc(C(C)(C)C)ccc3O)C(=O)Nc3ccccc32)cc1 (centres unmarked) [Sd153],–,10.9 ± 1.3 µM,2.3 ± 0.3 µM,11 µM,–,–,3.55,–,–
